{"source": "patent US20190255144A1", "about": "“SPECIFIC OLIGOPEPTIDES AS ANTI-ANGIOGENIC DRUGS” (NEURONAX, priority 2014, published 2019)", "key": {"[1]": {"tested_on": "tumors obtained from U87-MG grafts on the CAM", "assay": "Experimental tumors from U87-MG grafts on the CAM: vascularization, Ki-67, vimentin", "type": "in vivo, chicken embryo", "conditions": "for Tumor vascularization, density of the vessels that irrigate the tumor (in words): topical 250 μg/mL; for Quantification of the Ki-67 labeling, Center 1 / Quantification of the Ki-67 labeling, Center 2 / Quantification of the Ki-67 labeling, Edge 1 / Quantification of the Ki-67 labeling, Edge 2: treated 48 hours; for Quantification of the Ki-67 labeling, Center 1 / Quantification of the Ki-67 labeling, Center 2: tumor center; for Quantification of the Ki-67 labeling, Edge 1 / Quantification of the Ki-67 labeling, Edge 2: tumor edge", "method": "To obtain a tumor, the U87-MG cells are inoculated at a rate of 200,000 cells in 75-cm^2 flasks in the presence of a basal medium. A volume that contains 4.10^6 cells is then sampled, and after centrifuging for 5 minutes with 311 g, the supernatant is eliminated, and the cells are resuspended in 20 μL of differential medium that is deposited in the center of a silicone ring that was previously applied on the CAM of an embryo at ED9. Once the grafting is done, the embryo is set out to incubate. At ED11, the tumors can be observed under a MZFL3 binocular (Leica, Paris, France). At this stage, the tumors are either treated topically (apical part of the tumor) by 30 μL of the oligopeptide according to the invention at 250 μg/mL or else by 30 μL of sterile distilled water up to stage ED13. The tumors are then sampled, and cryosections are produced to make possible immunohistochemical analyses. […] The macroscopic observations of tumors as well as the diffusion of fluorescein into the vessels are made with a fluorescence binocular (MZFL3, Leica, France).\nA volume that contains 4.10^6 cells is then sampled and after centrifuging for 5 minutes with 300 g, the supernatant is eliminated, and the cells are resuspended in 20 μL of differential medium that is deposited in the center of a silicone ring that was previously applied on the CAM of an embryo at ED9. Once the grafting has been done, the embryo is set out to incubate.\nAt ED11, the tumors can be observed under a MZFL3 binocular (Leica, Paris, France), and it is possible to track the change in the tumor growth up to ED14.\nThe tumors that are developed on the CAM are observed on the chorioallantoic membrane using a MZFL3-type binocular (Leica, France) before being sampled.\nThe vascular endothelium of the vessels of a chicken is labeled using a lectin, SNA-1 (Sambuccus Nigra Agglutinin-1, Vector Laboratories), coupled to FITC (fluorescein isothiocyanate).\nAfter 10 minutes of attachment with 200 μL of 4% PBS 1X-PFA at ambient temperature, the sections are incubated with a solution of 0.05% TBS 1X-Tween-0.1% Trypsin, pH 7.6, for 10 minutes. They are then washed 3 times in PBS 1X, and 100 μL of a dilution with 1/200th of the SNA-1 lectin in a solution of 0.05% TBS 1X-Tween with pH 7.6 is applied for 1 hour. After washing cycles (the last of which is carried out with distilled water), the slides are then mounted as described in the preceding paragraph and observed with a fluorescence microscope. Counts of vessels were made from photos with a magnification ×100 and in a marginal zone spreading 600 μm from the edge of the tumor. An ANOVA-type statistical test was then carried out to validate the relevance of the effect observed. The SNA-1 lectin specifically labels the chicken endothelial cells that constitute the vascular wall.\nThe tumors are attached in 4% PBS 1X-PFA (24 hours) and then dehydrated in absolute ethanol and then in pure toluene and next are enclosed and preserved in a paraffin block. 4-μm sections are made from a microtome and deposited on Superfrost plus slides, and then dried in an oven at 50° C. for one night.\nTo carry out the immunolabeling, the sections are dewaxed and then rehydrated by baths of decreasing concentrations of ethanol and then rinsed in PBS 1X.\nSo as to unmask the antigenic sites, the slides are incubated in a citrate buffer with pH 7 (200 μM of citric acid; 9.8 mmol of sodium citrate) and undergo a heating cycle (4×5 minutes at 750 W in the microwave). The endogenic peroxidases are inhibited by carrying out a 10-minute bath in methanol-5%H2O2. After 3 washing cycles, the saturation of PBS-3% BSA and then the incubation with the anti-Ki67 antibody are carried out. After rinsing with PBS 1X, an HRP-conjugated secondary antibody is applied for 1 hour at ambient temperature. […] A counter-staining is carried out in hematoxylin, and the sections are mounted in an aqueous solution before being observed with a Leica DMRX microscope."}, "[2]": {"tested_on": "tumors from subcutaneous heterotopic grafts", "assay": "Tumors from subcutaneous heterotopic grafts in nude mouse: Ki67, CD31, tumor volume", "type": "in vivo", "conditions": "for Tumor Volume D0: day 0 after injection of cancer cells, treatment in hydrogel injected on 21st day; for Tumor Volume D5: day 5 after injection of cancer cells; for Tumor Volume D5 / Tumor Volume D12 / Tumor Volume D17 / Tumor Volume D19: before treatment (21st day); for Tumor Volume D12: day 12 after injection of cancer cells; for Tumor Volume D17: day 17 after injection of cancer cells; for Tumor Volume D19: day 19 after injection of cancer cells; for Tumor Volume D21: day 21 after injection of cancer cells, day of treatment injection in hydrogel; for Tumor Volume D23: day 23 after injection of cancer cells, 48 hours after treatment in hydrogel; for Ki67 labeling quantification, Mean Center / CD31 labeling quantification, Center: tumor center", "from_the_text": "FIGS. 7A to 7E show the results of the analysis of the activity of the oligopeptide according to the invention on the proliferation, the vascularization, and the tumor growth in nude mice: • The images A, B and C of FIG. 7A show the immunolabeling of Ki-67 on tumor sections treated by H2O, TSP-1 or the oligopeptide according to the invention respectively. • The images D, E and F of FIG. 7A are magnifications (2×) of FIGS. A, B and C. • The images G, H and I of FIG. 7A represent the immunolabeling of CD31 on tumor sections that are treated by H2O, TSP-1 or the oligopeptide according to the invention respectively (the bars of the scale correspond to 500 μm). • The images J, K and L of FIG. 7A are magnifications (2×) of the images G, H and I.\nThe Ki-67 labeling was quantified under the various conditions using imageJ software, and comparisons between the center and the edge of tumors and between the conditions were carried out (FIG. 7B) by analysis of variances (ANOVA test). A value of p<0.05 is considered to be significant. * p<0.05 that is compared to the center of the same tumors; $ p<0.05 and $$ p<0.01 that is compared to the control. • The CD31 labeling was quantified under the various conditions using image J software, and comparisons between the center and the edge of tumors and between the conditions were carried out (FIG. 7C) by analysis of variances (ANOVA test). […] The injections of the treatments (hydrogel by itself, TSP-1 and the oligopeptide according to the invention (NX) were carried out on the 21st day (black arrow)). The comparison of the tumor sizes in comparison to the controls was carried out by analysis of variances (ANOVA test). ** p<0.01; *** p<0.001.\nThe experimentation on the mouse confirms the results that are obtained with the CAM model. In this case, the tumors were obtained from subcutaneous heterotopic grafts in the area of the leg of a nude mouse (FIGS. 7B, 7C and 7E).\nTables 6, 7 and 8: These tables correspond to the raw values that are obtained during various analyses conducted on the tumors that are treated in vivo. Analysis of the proliferation (Ki67 labeling quantification) (F), analysis of the vascularization (CD31 labeling quantification) (G) and analysis of the tumor growth as a function of time (measurement of the tumor volume) (H). “con,” “CTRL” and “hydrogel” treatments are control conditions, “TSP” and “TSP1” are the treatments with thrombospondin 1 (TSP-1), and NX is the treatment with the peptide according to the invention"}, "[3]": {"conditions": "U87-MG tumor on CAM, listed as TSP1"}, "[4]": {"conditions": "nude mouse tumor sections, tumor edge"}}, "note": "“And” between values parts separate entries of the source, which are not always exact repeats. Equal values may be shown once. “Also recorded” adds a separate entry of the source."}
{"substance": "thrombospondin 1 [TSP, reference compound]", "values": [{"measurement": "Tumor vascularization, density of the vessels that irrigate the tumor (in words)", "setting": "[1]; U87-MG tumor on CAM", "value": "produces the same effects but to a lesser degree"}, {"measurement": "Quantification of the Ki-67 labeling, Center 1", "setting": "[1]; [3]", "value": "300 and 233"}, {"measurement": "Quantification of the Ki-67 labeling, Center 2", "setting": "[1]; [3]", "value": "292 and 350"}, {"measurement": "Quantification of the Ki-67 labeling, Edge 1", "setting": "[1]; [3]", "value": "227 and 286"}, {"measurement": "Quantification of the Ki-67 labeling, Edge 2", "setting": "[1]; [3]", "value": "314 and 228"}, {"measurement": "Tumor Volume D0", "setting": "[2]; nude mice", "value": 0, "unit": "mm^3"}, {"measurement": "Tumor Volume D5", "setting": "[2]; nude mice", "value": 33.55, "unit": "mm^3"}, {"measurement": "Tumor Volume D12", "setting": "[2]; nude mice", "value": 29.93, "unit": "mm^3"}, {"measurement": "Tumor Volume D17", "setting": "[2]; nude mice", "value": 49.88, "unit": "mm^3"}, {"measurement": "Tumor Volume D19", "setting": "[2]; nude mice", "value": 81.07, "unit": "mm^3"}, {"measurement": "Tumor Volume D21", "setting": "[2]; nude mice", "value": 112.5, "unit": "mm^3"}, {"measurement": "Tumor Volume D23", "setting": "[2]; nude mice", "value": 101.9, "unit": "mm^3"}, {"measurement": "Ki67 labeling quantification, Mean Center", "setting": "[2]; nude mouse tumor sections", "value": 200.3}, {"measurement": "CD31 labeling quantification, Center", "setting": "[2]; nude mouse tumor sections, raw values, listed as TSP1", "value": "66 and 53 and 63 and 56"}, {"measurement": "Ki67 labeling quantification, Mean Edge", "setting": "[2]; [4]", "value": 228.2}, {"measurement": "CD31 labeling quantification, Edge", "setting": "[2]; nude mouse tumor sections, tumor edge, raw values, listed as TSP1", "value": "53 and 42 and 39 and 45"}]}
{"substance": "—W—S-G-W—S—S—C—S—R—S—C-G- (WSGWSSCSRSCG; Oligopeptide derived from SCO-Spondin) [NX]", "values": [{"measurement": "Time to disappearance of pinkish color (capillaries on the surface of the tumor)", "setting": "[1]; CAM tumors 1 to 2 mm in diameter", "value": "≤ 24", "unit": "h"}, {"measurement": "SNA-1 labeling of vessels on tumor sections", "setting": "[1]; U87-MG tumor on CAM", "value": "the SNA-1 labeling disappears more specifically into the zone that is close to the surface of the tumor"}, {"measurement": "Tumor vascularization, density of the vessels that irrigate the tumor (in words)", "setting": "[1]; U87-MG tumor on CAM, listed as oligopeptide according to the invention", "value": "more effective than the TSP-1; also recorded: significant reduction in the density of the vessels that irrigate the tumor"}, {"measurement": "Quantification of the Ki-67 labeling, Center 1", "setting": "[1]; U87-MG tumor on CAM", "value": "355.5 and 369"}, {"measurement": "Quantification of the Ki-67 labeling, Center 2", "setting": "[1]; U87-MG tumor on CAM", "value": "383.5 and 370"}, {"measurement": "Quantification of the Ki-67 labeling, Edge 1", "setting": "[1]; U87-MG tumor on CAM", "value": "165 and 184"}, {"measurement": "Quantification of the Ki-67 labeling, Edge 2", "setting": "[1]; U87-MG tumor on CAM", "value": "172 and 153"}, {"measurement": "Tumor cells expressing the vimentin", "setting": "[1]; U87-MG tumor on CAM, vimentin/SNA-1 co-labeling", "value": "reduction in the number of differentiated tumor cells expressing the vimentin"}, {"measurement": "Ki-67 labeling of tumor (in words)", "setting": "[1]; tumors in the CAM model, peripheral zone", "value": "the peripheral zone does not express the Ki67 marker"}, {"measurement": "Cell proliferation, Ki-67 labeling (in words)", "setting": "[2]; nude mice tumors", "value": "decrease in the Ki-67 labeling"}, {"measurement": "CD31 labeling (in words)", "setting": "[2]; nude mice tumors, periphery, compared with control", "value": "reduction in the CD31 labeling on the periphery"}, {"measurement": "Tumor volume change (in words)", "setting": "[2]; nude mice, 48 hours after the treatment", "value": "decrease in volume"}, {"measurement": "Tumor Volume D0", "setting": "[2]; nude mice", "value": 0, "unit": "mm^3"}, {"measurement": "Tumor Volume D5", "setting": "[2]; nude mice", "value": 46.46, "unit": "mm^3"}, {"measurement": "Tumor Volume D12", "setting": "[2]; nude mice", "value": 39.04, "unit": "mm^3"}, {"measurement": "Tumor Volume D17", "setting": "[2]; nude mice", "value": 70.6, "unit": "mm^3"}, {"measurement": "Tumor Volume D19", "setting": "[2]; nude mice", "value": 78.82, "unit": "mm^3"}, {"measurement": "Tumor Volume D21", "setting": "[2]; nude mice", "value": 135.6, "unit": "mm^3"}, {"measurement": "Tumor Volume D23", "setting": "[2]; nude mice", "value": 68.03, "unit": "mm^3"}, {"measurement": "Ki67 labeling quantification, Mean Center", "setting": "[2]; nude mouse tumor sections", "value": 181.7}, {"measurement": "CD31 labeling quantification, Center", "setting": "[2]; nude mouse tumor sections, raw values", "value": "26 and 40 and 28 and 38"}, {"measurement": "Ki67 labeling quantification, Mean Edge", "setting": "[2]; [4]", "value": 49.75}]}
